Where two headings read alike, the source gives them in different places.
Legend:
Format in all cases: cell-based, rodent
CRAC channel = CRAC channel (Rattus norvegicus, UniProt Q5M848); test: Inhibition of Ca2+ influx in thapsigargin-activated RBL-2H3 mast cells; details: for inhibition at 100 µM: RBL-2H3, read-out: Inhibition of Ca2+ influx at 100 µM (no IC50)
TNFα = TNFα protein secretion by thapsigargin-activated RBL cells, ELISA; details: 4 h, read-out: IC50 (µM) TNFα
RBL-2H3 cells = test: β-hexosaminidase release; details: highest concentration tested
NFAT-c1 = details: 10 µM and higher concentrations

Chain of CRAC channel (Q5M848 whole entry): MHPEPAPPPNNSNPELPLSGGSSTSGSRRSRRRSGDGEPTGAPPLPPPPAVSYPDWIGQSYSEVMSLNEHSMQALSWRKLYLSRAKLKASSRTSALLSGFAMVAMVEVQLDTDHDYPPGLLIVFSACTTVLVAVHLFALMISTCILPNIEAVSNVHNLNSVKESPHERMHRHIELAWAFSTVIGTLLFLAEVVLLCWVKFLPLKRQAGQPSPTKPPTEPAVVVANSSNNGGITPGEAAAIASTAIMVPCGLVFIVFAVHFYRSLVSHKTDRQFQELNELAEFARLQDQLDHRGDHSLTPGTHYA

O=C(Nc1nn(Cc2ccc(Cl)cc2Cl)c2ccccc12)c1c(F)cccc1F [Compound 9a]
inhibition at 100 µM (CRAC channel): < 50%

Cc1nnsc1C(=O)Nc1nn(Cc2ccc(Cl)cc2Cl)c2ccccc12 [Compound 9e]
IC50 (CRAC channel): > 30 µM | inhibition at 30 µM (CRAC channel; RBL-2H3, read-out: Inhibition of Ca2+ influx at 30 µM): ~50%

O=C(Nc1nn(Cc2ccc(Cl)cc2Cl)c2ccccc12)c1ccc(F)cc1F [Compound 9f]
inhibition at 100 µM (CRAC channel): < 50%

O=C(Nc1ccccc1F)c1nn(Cc2ccc(Cl)cc2Cl)c2ccccc12 [Compound 12c]
IC50 (CRAC channel): > 30 µM

O=C(Nc1ccc(F)cc1F)c1nn(Cc2ccc(Cl)cc2Cl)c2ccccc12 [Compound 12e]
IC50 (TNFα): 0.64 µM

O=C(Nc1cnns1)c1nn(Cc2ccc(Cl)cc2Cl)c2ccccc12 [Compound 12h]
inhibition at 100 µM (CRAC channel): < 50%

N-[1-[(2,4-dichlorophenyl)methyl]indazol-3-yl]-3-fluoro-pyridine-4-carboxamide [Compound 12d]
IC50 (CRAC channel; read-out: IC50 (µM) Ca2+ influx, Table 3, SD <20%): 0.67 µM | IC50 (CRAC channel; read-out: IC50 (µM), inhibition of Ca2+ influx, indazole derivatives, Table 1, RBL-2H3 cells activated with Tg 1 µM, SD <35%): 0.67 µM | Inhibition of β-hex release (in words) (RBL-2H3 cells): nearly complete inhibition of β-hex release | Level of nuclear NFAT (in words) (NFAT-c1): restore the levels of nuclear NFAT to that of resting MCs
